Literature values in PubChem BioAssay AID1259409 (Chemical Carcinogenesis Research Information System (CCRIS), 2018).
Where a SMILES comes first, the peptide text is derived from it. Bridges are numbered along the chain shown (N, C = ends). [ ]: non-standard residue; d: D form.

System: rodent chemically induced tumor inhibition, incidence and multiplicity
Assay: CCRIS tumor inhibitor studies

For `Oc1ccccc1`, the “tumour outcome (control, treated, inhibition, significance)” value (Carcinogen: BENZO[A]PYRENE, 50-32-8, Dose [Inhibitor]: 0.03 MMOL/G OF DIET STARTING 8 D BEFORE AND CONTINUING THROUGH 3 D AFTER LAST CARCINOGEN TREATMENT (STUDY DURATION: 148, Route [Inhibitor]: ORAL, Species: MOUSE, Strain/Sex: ICR/FEMALE, Target Tissue: Type of Lesion: FORESTOMACH: NEOPLASM, Dose [Carcinogen]: 1 MG IN 0.2 ML CORN OIL 2/WK FOR 4 WK, Promoter: NONE USED) is listed as 100%, 100%, 0%, not significant, the “tumour outcome (control, treated, inhibition, significance)” value (Carcinogen: BENZO[A]PYRENE, 50-32-8, Dose [Inhibitor]: 3 MG IN 0.1 ML ACETONE 3/WK ADMINISTERED SIMULTANEOUSLY WITH CARCINOGEN FOR DU RATION OF STUDY (STUDY DURATION: 368 D), Route [Inhibitor]: DERMAL, Species: MOUSE, Strain/Sex: ICR/FEMALE, Target Tissue: Type of Lesion: SKIN: PAPILLOMA, Dose [Carcinogen]: 5 UG IN 0.1 ML ACETONE 3/WK FOR DURATION OF STUDY, Promoter: NONE USED) is listed as 14/50 (28%), 7/50 (14%), 50%, not calculated and the “tumour outcome (control, treated, inhibition, significance)” value (Carcinogen: BENZO[A]PYRENE, 50-32-8, Dose [Inhibitor]: 3 MG IN 0.1 ML ACETONE 3/WK ADMINISTERED SIMULTANEOUSLY WITH CARCINOGEN FOR DURATION OF STUDY (STUDY DURATION: 368 D), Route [Inhibitor]: DERMAL, Species: MOUSE, Strain/Sex: ICR/FEMALE, Target Tissue: Type of Lesion: SKIN: SQUAMOUS CARCINOMA, Dose [Carcinogen]: 5 UG IN 0.1 ML ACETONE 3/WK FOR DURATION OF STUDY, Promoter: NONE USED) is listed as 10/50 (20%), 3/50 (6%), 70%, not calculated.

In the case of `O=c1c(-c2ccc(O)cc2)coc2cc(O)ccc12`, the “tumour outcome (control, treated, inhibition, significance)” value (Carcinogen: 7,12-DIMETHYLBENZ[A]ANTHRACENE (57-97-6), Dose [Inhibitor]: 105 MG/KG DIET FOR 17 WKS (STUDY DURATION: 17 WKS), Route [Inhibitor]: DIET, Species: RAT, Strain/Sex: SPRAGUE-DAWLEY/FEMALE (20,18)/(20,19), Target Tissue: Type of Lesion: MAMMARY, Dose [Carcinogen]: 12.5 MG ONCE 1 WK AFTER START OF DIET (STUDY DURATION: 17 WKS)) is listed as 95%, 85%, 11%, p=0.366, the “tumour outcome (control, treated, inhibition, significance)” value (Carcinogen: N-METHYL-N-NITROSOUREA, 684-93-5, Dose [Inhibitor]: 0, 1 MG/30 G BW 1/4 WK FOR 25 WK BEGINNING 5 WK POST CARCINOGEN TREATMENT (STUDY DURATION: 30 WK), Route [Inhibitor]: SUBCUTANEOUS, Species: MOUSE, Strain/Sex: ICR/FEMALE, Target Tissue: Type of Lesion: UTERUS (LEFT): ADENOCARCINOMA, Dose [Carcinogen]: 0.1 MG/KG BW INJECTED INTO LEFT UTERINE TUBE ONCE) is listed as 3/26 (11%), 0/14 (0%), 100%, not significant and the “tumour outcome (control, treated, inhibition, significance)” value (Carcinogen: N-METHYL-N-NITROSOUREA, 684-93-5, Dose [Inhibitor]: 0, 1 MG/30 G BW 1/4 WK FOR 25 WK BEGINNING 5 WK POST CARCINOGEN TREATMENT (STUDY DURATION: 30 WK), Route [Inhibitor]: SUBCUTANEOUS, Species: MOUSE, Strain/Sex: ICR/FEMALE, Target Tissue: Type of Lesion: UTERUS (LEFT): ADENOCARCINOMA, Dose [Carcinogen]: 0.1 MG/KG BW INJECTED INTO LEFT UTERINE TUBE ONCE, Promoter: 17-BETA-ESTRADIOL, 50-28-2) is listed as 8/24 (33%), 1/23 (4%), 87%, p<0.05.

In the case of `CC(C)=CCC1=C(O)[C@@](O)(CC=C(C)C)C(=O)C(C(=O)CC(C)C)=C1O`, the “tumour outcome (control, treated, inhibition, significance)” value (Carcinogen: 7,12-DIMETHYLBENZ[A]ANTHRACENE : 57-97-6, Dose [Inhibitor]: 0, 1 MG IN 100 µL ACETONE/DMSO (9:1) 2/WK FOR 17 WK APPLIED 30 MIN PRIOR TO EACH PROMOTER DOSE (STUDY DURATION: 18 WK), Route [Inhibitor]: DERMAL, Species: MOUSE, Strain/Sex: ICR/FEMALE, Target Tissue: Type of Lesion: SKIN: PAPILLOMA, Dose [Carcinogen]: 50 UG IN 100 µL ACETONE ONCE, Promoter: 12-O-TETRADECANOYLPHORBOL-13-ACETATE, 16561-29-8) is listed as 100%, 7%, 93%, not calculated.

For `CCNC(=O)[C@@H]1CCCN1C(=O)[C@H](CCCN=C(N)N)NC(=O)[C@H](CC(C)C)NC(=O)[C@@H](CC(C)C)NC(=O)[C@H](Cc1ccc(O)cc1)NC(=O)[C@H](CO)NC(=O)[C@H](Cc1c[nH]c2ccccc12)NC(=O)[C@H](Cc1cnc[nH]1)NC(=O)[C@@H]1CCC(=O)N1`, the “tumour outcome (control, treated, inhibition, significance)” value (Carcinogen: N-BUTYL-N-(4-HYDROXYBUTYL)NITROSAMINE, 3817-11-6, Dose [Inhibitor]: 0, 1 MG/KG 1/4 WK FOR 11 WK BEGINNING POST CARCINOGEN TREATMENT (STUDY DURATION: 21 WK), Route [Inhibitor]: SUBCUTANEOUS, Species: RAT, Strain/Sex: WISTAR/MALE, Target Tissue: Type of Lesion: URINARY BLADDER:CARCINOMA, Dose [Carcinogen]: 0.05% IN DRINKING WATER FOR 10 WK, Promoter: NONE USED) is given as 15/17 (88%), 10/18 (56%), 36%, p<0.05.

For `CC(C)(Oc1ccc(CCNC(=O)c2ccc(Cl)cc2)cc1)C(=O)O`, the “tumour outcome (control, treated, inhibition, significance)” value (Carcinogen: AZOXYMETHANE (25843-45-2), Dose [Inhibitor]: 0, 0.05% ADMINISTERED 1 WK AFTER END OF DEXTRAN SODIUM SULFATE TREATMENT FOR 14 WKS (STUDY DURATION: 17 WKS), Route [Inhibitor]: DIET, Species: MOUSE, Strain/Sex: CD-1/FEMALE (10,10)/(10,10), Target Tissue: Type of Lesion: COLON: ADENOCARCINOMA, Dose [Carcinogen]: 10 MG/KG ONCE, Promoter: DEXTRAN SODIUM SULFATE (9011-18-1)) is given as 10/10 (100%), 6/10 (60%), 40%, p<0.05 and the “tumour outcome (control, treated, inhibition, significance)” value (Carcinogen: AZOXYMETHANE (25843-45-2), Dose [Inhibitor]: 0, 0.05% ADMINISTERED 1 WK AFTER END OF DEXTRAN SODIUM SULFATE TREATMENT FOR 14 WKS (STUDY DURATION: 17 WKS), Route [Inhibitor]: DIET, Species: MOUSE, Strain/Sex: CD-1/FEMALE (10,10)/(10,10), Target Tissue: Type of Lesion: COLON: ADENOMA, Dose [Carcinogen]: 10 MG/KG ONCE, Promoter: DEXTRAN SODIUM SULFATE (9011-18-1)) is given as 10/10 (100%), 7/10 (70%), 30%, not significant.

For `C=C(C)[C@@H]1CC=C2C(=CC[C@]3(C)[C@@H](C(CCC=C(C)C)C(=O)O)[C@H](O)C[C@@]23C)[C@@]1(C)CCC(=O)O` (stereo partly specified), the “tumour outcome (control, treated, inhibition, significance)” value (Carcinogen: 7,12-DIMETHYLBENZ[A]ANTHRACENE, 57-97-6, Dose [Inhibitor]: 0, 0.2 UMOL 2/WK FOR 19 WK BEGINNING 1 WK POST CARCINOGEN DOSE (STUDY DURATION: 20 WK), Route [Inhibitor]: DERMAL, Species: MOUSE, Strain/Sex: ICR, Target Tissue: Type of Lesion: SKIN: PAPILLOMA, Dose [Carcinogen]: 50 UG ONCE, Promoter: 12-O-TETRADECANOYLPHORBOL-13-ACETATE, 16561-29-8) is listed as 73%, 32%, 56%, not calculated and the “tumour outcome (control, treated, inhibition, significance)” value (Carcinogen: 7,12-DIMETHYLBENZ[A]ANTHRACENE, 57-97-6, Dose [Inhibitor]: 0, 0.2 UMOL IN 100 µL ACETONE:DMSO (9:1) 2/WK FOR 20 WK APPLIED 30 MIN PRIOR TO EACH CARCINOGEN DOSE (STUDY DURATION: 20, Route [Inhibitor]: DERMAL, Species: MOUSE, Strain/Sex: ICR/FEMALE, Target Tissue: Type of Lesion: SKIN: PAPILLOMA, Dose [Carcinogen]: 50 UG IN 100 µL ACETONE ONCE, Promoter: 12-O-TETRADECANOYLPHORBOL-13-ACETATE, 16561-29-8) is listed as 73%, 33%, 55%, p<0.05.

In the case of `CC(C)[C@@H]1NC(=O)[C@H](CCCCN)NC(=O)[C@@H](Cc2c[nH]c3ccccc23)NC(=O)[C@H](Cc2ccc(O)cc2)NC(=O)[C@@H](NC(=O)[C@H](N)Cc2ccccc2)CSSC[C@@H](C(=O)N[C@@H](Cc2c[nH]c3ccccc23)C(N)=O)NC1=O` (H-[dF]CY[dW]KVCW-NH2; disulfide 2-7), the “tumour outcome (control, treated, inhibition, significance)” value (Carcinogen: N-BUTYL-N-(4-HYDROXYBUTYL)NITROSAMINE, 3817-11-6, Dose [Inhibitor]: 0, 50 UG/RAT/D FOR 12 WK BEGINNING POST CARCINOGEN TREATMENT (STUDY DURATION: 17 WK), Route [Inhibitor]: SUBCUTANEOUS, Species: RAT, Strain/Sex: F344/FEMALE, Target Tissue: Type of Lesion: URINARY BLADDER: CARCINOMA IN SITU, Dose [Carcinogen]: 0.05% IN DRINKING WATER FOR 4 WK, Promoter: MITOMYCIN C, 50-07-7) is given as 10/40 (25%), 1/20 (5%), 80%, p<0.001, the “tumour outcome (control, treated, inhibition, significance)” value (Carcinogen: N-BUTYL-N-(4-HYDROXYBUTYL)NITROSAMINE, 3817-11-6, Dose [Inhibitor]: 0, 50 UG/RAT/D FOR 12 WK BEGINNING POST CARCINOGEN TREATMENT (STUDY DURATION: 17 WK), Route [Inhibitor]: SUBCUTANEOUS, Species: RAT, Strain/Sex: F344/FEMALE, Target Tissue: Type of Lesion: URINARY BLADDER: INVASIVE CARCINOMA, Dose [Carcinogen]: 0.05% IN DRINKING WATER FOR 4 WK, Promoter: MITOMYCIN C, 50-07-7) is given as 12/40 (30%), 0/20 (0%), 100%, not calculated and the “tumour outcome (control, treated, inhibition, significance)” value (Carcinogen: N-BUTYL-N-(4-HYDROXYBUTYL)NITROSAMINE, 3817-11-6, Dose [Inhibitor]: 0, 50 UG/RAT/D FOR 12 WK BEGINNING POST CARCINOGEN TREATMENT (STUDY DURATION: 17 WK), Route [Inhibitor]: SUBCUTANEOUS, Species: RAT, Strain/Sex: F344/FEMALE, Target Tissue: Type of Lesion: URINARY BLADDER: PAPILLOMA, Dose [Carcinogen]: 0.05% IN DRINKING WATER FOR 4 WK, Promoter: MITOMYCIN C, 50-07-7) is given as 20/40 (50%), 11/20 (55%), -10%, not significant. The “tumour outcome (control, treated, inhibition, significance)” value (Carcinogen: N-NITROSOBIS(2-OXOPROPYL)AMINE, 60599-38-4, Dose [Inhibitor]: 0, 35 UG/D FROM OSMOTIC PUMP FOR 2 MO, Route [Inhibitor]: SUBCUTANEOUS IMPLANT, Species: HAMSTER, Strain/Sex: SYRIAN/FEMALE, Target Tissue: Type of Lesion: PANCREAS: ADENOCARCINOMA, Promoter: NONE USED) was 12/12 (100%), 6/11 (55%), 45%, not calculated.
